Experimental data: the NIST ThermoML archive (doi:10.1016/j.jct.2007.11.001)
± gives the expanded uncertainty stated by the source.

Key:
[1] = Crystal 2; Adiabatic calorimetry
[2] = Molar enthalpy of transition or fusion; conditions: Crystal 2; Adiabatic calorimetry

O=P([O-])([O-])[O-].[Cs+].[Mg+2] [caesium-magnesium monophosphate]
Triple point temperature [1]: 235.69 ± 0.2 K
Molar enthalpy of transition or fusion [2]: 0.271 ± 0.025 kJ/mol
